According to patent US11771685B2, “Compounds for the treatment of neurological or mitochondrial diseases” (MUSC FOUNDATION FOR RESEARCH DEVELOPMENT, priority 2018, dated 2023):
Where two headings read alike, the source gives them in different places.

Columns and labels:
[1] = Liver microsome stability; type: in vitro ADME; conditions: in vitro
Brain tissue binding = type: in vitro ADME; conditions: in vitro, read-out: Brain tissue binding (% bound)
Zebrafish larvae = assay: In vivo toxicology in zebrafish larvae; conditions: 7 dpf larvae, 24 hr
Description: Zebrafish larvae, 7 days post-fertilization (dpf), were exposed to compounds at 20, 15, 10, and 5 μM, six larvae per compound. Animals were observed 1, 5, and 24 hr after dosing for overt toxicity (altered survival, morbidity, morphological deformity). Heart rate, behavior, and startle response were monitored at each time point.
Zebrafish (AB strain) were obtained from the Zebrafish International Resource Center (supported by P40 RR012546 from NIH—NCRR). Zebrafish were maintained and crossed according to standard methods (Westerfield, 2000). Fertilized eggs were collected and placed in E3 embryo medium and positioned in an incubator set at 28.5° C. with a 14/10-hr light/dark cycle (Kimmel et al., 1995). To determine the lethal dose of each compound, 96-well plates containing one zebrafish (7 days post-fertilization, dpf) per well in 100 μL of tank water were used. 100 μL of each compound (0.5-15 μM) was added to each well for 12 animals (one row) for a final volume of 200 μL. One row of larvae was used as dimethyl sulfoxide (DMSO)-only controls. […] All zebrafish studies were approved by the Medical University of South Carolina Institutional Animal Care and Use Committee (#180278) and performed in accordance with the guidelines.
Using a 96-well plate, 7 dpf zebrafish were placed one per well with 100 μL of tank water. 100 μL of each compound was then added to each well for 12 animals (one row) for a final volume of 200 μL. One row of zebrafish larvae was used as DMSO only controls.

[2] = In vivo pharmacokinetics in CD-1 mice; design: species or system mouse; conditions: for Vd: read-out: Vss; for Cmax: read-out: Cmax
Description: PK studies on 3 and 25 were carried out in CD-1 mice. Three males were dosed via oral gavage needle for oral administration at 20 mg/kg (10 mL/kg) or via intravenous administration at 5 mg/kg (10 mL/kg). Blood samples were taken at time intervals between 5 min and 24 hr from each animal.
The PK studies of 1 were performed by WuXi AppTec and PK studies of 3 and 25 were performed by Touchstone Biosciences (Peng et al., 2006b; Peng et al., 2001; Peng et al., 2006a; Peng et al., 2009). Male CD-1 mice were fed a standard laboratory rodent diet and housed in individual cages on a 12 hr light and 12 hr dark cycle with room temperature maintained at 22±3° C. and relative humidity at 50±20%. Animals were typically fasted overnight before dosing, with food returned after the 6 hr blood samples were obtained. Water was provided ad libitum throughout the study. The dosing solution of each test compound was prepared in a desired oral or intravenous formulation. Three to four animals were dosed via gavage needle for oral administration at 10-20 mg/kg (10-20 mL/kg) or via tail vein injection for IV administration at 2-5 mg/kg (2-5 mL/kg). […] Fluid replacement (1.5 mL of 0.9% NaCl injection, USP) was administered subcutaneously once after the 2 hr blood sampling. Blood samples were collected in BD Microtainer tubes coated with anticoagulant, placed on ice, and within 30 min, centrifuged at 15,000 g for 5 min to obtain plasma samples. All plasma samples were stored at −70° C. until analysis.
Plasma samples were prepared as follows. Three volumes of acetonitrile containing internal standard was added to one volume of plasma to precipitate proteins. Samples were centrifuged (3000 g for 10 min) and supernatant removed for analysis by LC-MS/MS. Calibration standards and quality controls were made by preparation of a 1 mg/mL stock solution and subsequently a series of working solutions in methanol:water (1:1, v/v) which were spiked into blank plasma to yield a series of calibration standard samples in the range of 1.0 ng/mL to 10 μg/mL and quality control samples at three concentration levels (low, middle and high). All incurred PK/PD plasma samples were treated identically to the calibration standards and quality control samples. LC-MS-MS analysis was performed utilizing multiple reaction monitoring for detection of characteristic ions for each drug candidate, additional related analytes and internal standard.
Plasma concentrations were measured as described above to determine a concentration vs. time profile. The area under the plasma concentration vs time curve (AUC) was calculated using the linear trapezoidal method. Fitting of the data to obtain pharmacokinetic parameters was carried out using non-compartmental analysis. Key PK parameters reported following intravenous administration are as follows: terminal half-life t1/2, initial plasma concentration C0, area under the plasma concentration vs. time curve AUC, volume of distribution at steady-state Vss, total plasma clearance CLp, and mean residence time MRT. Key PK parameters reported following extravascular administration are as follows: terminal half-life t1/2, maximum plasma concentration Cmax, time to reach maximum plasma concentration tmax, area under the plasma concentration vs. time curve AUC, mean residence time MRT, and bioavailability F. All parameters are expressed for individual animals as well as mean, standard deviation, and coefficient of variation.

[3] = Rotarod neurotoxicity test in mice; type: in vivo, mouse; conditions: 5% DMSO: 95% Neobee
[4] = male, CD-1, mouse, plasma, ip, 20 mg/kg, intraperitoneal 20 mg/kg, 5% DMSO: 95% neobee
[5] = male, CD-1, mouse, plasma, iv, 5 mg/kg, intravenous 5 mg/kg, 20% DMA: 40% PEG300: 40% H2O
[6] = male, CD-1, mouse, plasma, iv, 5 mg/kg, 3 and 25 at 5 mg/kg
[7] = male, CD-1, mouse, plasma, po, 20 mg/kg, oral 20 mg/kg, 5% DMSO: 95% Neobee
[8] = male, CD-1, mouse, plasma, po, 20 mg/kg, oral 20 mg/kg, 20% DMA-40% PEG300-40% H2O
[9] = oral 20 mg/kg, 5% DMSO: 95% Neobee
[10] = oral 20 mg/kg, 20% DMA-40% PEG300-40% H2O

## CCC#CCNC1=CC(=O)c2ccccc2C1=O [Compound 3, 2-(Pent-2-yn-1-ylamino)naphthalene-1,4-dione]
[1]; listed as NT-181
  Liver microsome stability (t1/2): >1 h
[1]; liver microsomes, read-out: Liver microsome stability (t1/2)
  half-life: > 60 min
Brain tissue binding
  fraction unbound: 0.02 to 0.03
Zebrafish larvae
  concentration lethal/toxic at 24 hr: above 5 μM
[2]; intraperitoneal 20 mg/kg, 5% DMSO: 95% neobee
  tlast: 24 h
[2]; intravenous 5 mg/kg, 20% DMA: 40% PEG300: 40% H2O
  Clast: 1.37 ng/mL
[2]; intravenous, 5 mg/kg
  AUCinf/D: 89.6 h·(ng/mL)/(mg/kg)
  tlast: 24 h
[2]; intravenous, 3 and 25 at 5 mg/kg, 5 mg/kg
  t1/2: ~15 h
[2]; male, CD-1, mouse, brain/plasma, listed under intravenous 5 mg/kg, read-out: Brain Plasma Ratio
  Kp: 0.373
[2]; [4]
  AUC(0-t): 463 ng·h/mL
  half-life: 435 min
[2]; [5]
  AUC(0-inf): 448 ng·h/mL
  AUC(0-t): 421 ng·h/mL
  MRT inf: 4.28 h
  half-life: 882 min
  Vd: 48.6 L/kg
[2]; male, CD-1, mouse, plasma, iv, 5 mg/kg, intravenous 5 mg/kg, 20% DMA: 40% PEG300: 40% H2O, read-out: CLp
  clearance: 188 mL/min/kg
[2]; male, CD-1, mouse, plasma, iv, 5 mg/kg, intravenous, 3 and 25 at 5 mg/kg, read-out: CL
  clearance: 188 mL/min/kg
[2]; male, CD-1, mouse, plasma, iv, 5 mg/kg, intravenous, 3 and 25 at 5 mg/kg
  Vd: 48.6 L/kg
[2]; [6]
  AUC(0-inf): 448 ng·h/mL
  AUC(0-t): 421 ng·h/mL
  MRT inf: 4.28 h
  half-life: 882 min
[2]; [7]
  AUC(0-inf): 688 ng·h/mL
  AUC(0-t): 682 ng·h/mL
  MRT inf: 5.71 h
  Tmax: 4 h
  half-life: 200 min
  Cmax: 90.2 ng/mL
[2]; [8]
  AUC(0-inf): 992 ng·h/mL
  AUC(0-t): 738 ng·h/mL
  MRT inf: 5.82 h
  Tmax: 0.139 h
  half-life: 316 min
  Cmax: 394 ng/mL
[2]; male, CD-1, mouse, plasma, intraperitoneal 20 mg/kg, 5% DMSO: 95% neobee, read-out: Clast
  concentration at 24 hr: 1.47 ng/mL
[2]; male, CD-1, mouse, plasma, intravenous, 5 mg/kg, read-out: Clast
  concentration at 24 hr: 1.37 ng/mL
[2]; male, CD-1, mouse, plasma, intravenous, 3 and 25 at 5 mg/kg
  C0: 1520 ng/mL
[2]; male, CD-1, mouse, plasma, oral 20 mg/kg, 5% DMSO: 95% Neobee, read-out: Clast
  concentration at 24 hr: 1.21 ng/mL
[2]; male, CD-1, mouse, plasma, oral 20 mg/kg, 20% DMA-40% PEG300-40% H2O, 8 hr post-dose, read-out: Clast
  concentration at 8 hr: 33.1 ng/mL
[2]; [9]
  F: 38.4%
  tlast: 24 h
[2]; [10]
  AUCinf/D: 49.6 h·(ng/mL)/(mg/kg)
  Cmax/D: 19.8 (ng/mL)/(mg/kg)
  F: 55.3%
  tlast: 8 h
[3]
  Neurotoxicity (Rotorod assay), animals showing toxicity: 1/71 showed toxicity
